The values that follow come from patent publication US9950091B2, “Composition and method for stopping hemorrhage, infection, and accelerating healing in various types of wound or burns” (priority 2015, dated 2018).

The test has as its system human blood (platelet/fibrin clot). Description: Thrombelastography (TEG) clot kinetics in whole blood. It counts as cell-based. Conditions: Table 4, mean ± SD, n=4, control = normal blood, 'Heparin +' lines in presence of heparin. From the text: Thrombelastography techniques, which are commonly used in the clinical laboratory for monitoring coagulation functions, were utilized. Siliconized Vacutainer tubes (Becton Dickinson, Rutherford, N.J.) were used to collect whole blood. To maintain a ratio of citrate to whole blood of 1:9 (v/v), the tubes contained 3.2% trisodium citrate. Blood samples were placed on a slow speed rocker until TEG analysis.
Whole Blood Coagulation Analyzer, Model 5000 Thrombelastograph, Hemoscope Corporation, Skokie, Ill., was used. TEG is based on the measurement of the physical viscoelastic characteristics of blood clots. An oscillating plastic cylindrical cuvette (“cup”) and a coaxially suspended stationary piston (“pin”) with a […] clearance between the surfaces are used to monitor clot formation at 37° C. Every 4.5 seconds, with a 1-second mid cycle stationary period, the cup oscillates in either direction, resulting in a frequency of 0.1 Hz. […]
Different hydrogel polycatioinic matrix micro-composites were evaluated. […]
A standard global coagulation assay, namely Thrombelastography, uses a total of 5 ml blood from human volunteers. Additionally, the efficiency of the optimal hydrogel compositions that have the shortest Time to Clotting (R) and the strongest clot strength (MA) were evaluated in stopping severe bleeding in a hemorrhage simulation model system. […]

Regarding `NC[C@H]1CC[C@H](C(=O)O)CC1` [tranexamic acid (TXA), tranexamic acid], the “MA-Clot Strength” value worked out at 57 ± 4 mm and the “R - Time to Clot initiation” value was 9.0 ± 4 min.
